Results: patent US20200331882A1, “COMPOUND FOR SIMULTANEOUSLY INHIBITING LSD1 AND HDAC TARGETS AND APPLICATION THEREOF” (PEKING UNIVERSITY SHENZHEN GRADUATE SCHOOL, priority 2018, published 2020)

How the values were obtained:
Assay in all cases: CellTiter-Glo cell proliferation
Format in all cases: cell-based
OPM2 = details: CTG, 72 hours
Method: (§1) The effect of the present invention compound ZZY-003 on the cell proliferation of 50 cell lines was evaluated by CellTiter-Glo (CTG) method, and the 50% inhibitory concentration was calculated by detecting the cell viability after treatment with different drug concentrations. The cells were resuscitated and cultured in their respective culture media. The cells in logarithmic growth phase were harvested and the cells were counted by cell counter. The cell viability was detected by Trypan blue exclusion method to ensure that the cell line viability was more than 96%. The cell concentration was adjusted by diluting with the culture medium, and 90 μL cell suspension was added to the 96-well cell plate (including the cell control T0 on the day of drug treatment) to make the cell density reach the specified concentration. The cells in the 96-well plate were cultured overnight at 37° C., 5% CO2 and 95% humidity. 10 μL culture medium was added to the control cell culture plate. CellTiter-Glo reagent and cell culture plate were placed at room temperature to balance for 30 minutes. The same volume of CellTiter-Glo reagent was added to each well. Vibrate on the orbital shaker for 2 min to make the cells fully lytic. The cell culture plate was placed at room temperature to balance for 10 minutes. Chemiluminescence values were read with EnVision. The storage solution was formed by dissolving the tested compound with the corresponding solvent and diluted in gradient to obtain 10 times working concentration solution, and 10 times solution of positive drug was also prepared. 10 μL drug solution was added to each well in the 96-well plate in which the cells were inoculated, and each cell concentration was provided with three duplicate wells. The highest concentration of the tested compound was 10/50 μM, 9 concentrations and 3.16 times dilution. The cells in the 96-well plate added with drug were cultured at 37° C., 5% CO2 and 95% humidity for 72 hours. CellTiter-Glo reagent and drug-treated cell culture plate were placed at room temperature to balance for 30 minutes. The same volume of CellTiter-Glo reagent was added to each well. Vibrate on the orbital shaker for 2 minutes to make the cells fully lytic. The cell culture plate was placed at room temperature to balance for 10 minutes. Chemiluminescence values were read with EnVision. Data processing: […] Cell survival rate (%)=(Lum drug to be detected−Lum culture medium control)/(Lum cell control−Lum culture medium control)×100%; Lum cell control−Lum culture medium control was set to 100%, LumMedium control value was set to 0%;

HL-60 = details: CTG, 72 hours
Method: as §1

MOLM-13 = details: CTG, 72 hours
Method: as §1

MCF7 = details: CTG, 72 hours, highest concentration 10/50 μM
Method: as §1

LN-229 = details: CTG, 72 hours
Method: as §1

JVM-3 = details: CTG, 72 hours
Method: as §1

SNU-761 = details: CTG, 72 hours
Method: as §1

Ramos = details: CTG, 72 hours
Method: as §1

U-937 = details: CTG, 72 hours
Method: as §1

AN3 CA = details: CTG, 72 hours
Method: as §1

HuCCT1 = details: CTG, 72 hours
Method: as §1

B16-F10 = details: CTG, 72 hours
Method: as §1

MIA PaCa-2 = details: CTG, 72 hours
Method: as §1

MDA-MB-453 = details: CTG, 72 hours
Method: as §1

U266B1 = details: CTG, 72 hours
Method: as §1

AMO-1 = details: CTG, 72 hours
Method: as §1

HeLa = details: CTG, 72 hours
Method: as §1

NCI-H1299 = details: CTG, 72 hours
Method: as §1

PANC-1 = details: CTG, 72 hours
Method: as §1

HT-1376 = details: CTG, 72 hours
Method: as §1

Hep G2 = details: CTG, 72 hours
Method: as §1

N.N.[Cl][Pt][Cl] [Cisplatin, reference compound]
% inhibition at top conc. (OPM2; highest concentration 10/50 μM): 99.97%
IC50 (OPM2; read-out: Absolute IC50): 3.67 µM
% inhibition at top conc. (HL-60; highest concentration 10/50 μM): 99.99%
IC50 (HL-60; read-out: Absolute IC50): 1.56 µM
% inhibition at top conc. (MOLM-13; highest concentration 10/50 μM): 99.99%
IC50 (MOLM-13; read-out: Absolute IC50): 0.77 µM
% inhibition at top conc. (MCF7): 90.30%
% inhibition at top conc. (LN-229; highest concentration 10/50 μM): 97.32%
IC50 (LN-229; read-out: Absolute IC50): 11.8 µM
% inhibition at top conc. (JVM-3; highest concentration 10/50 μM): 99.71%
IC50 (JVM-3; read-out: Absolute IC50): 0.7 µM
% inhibition at top conc. (SNU-761; highest concentration 10/50 μM): 99.92%
IC50 (SNU-761; read-out: Absolute IC50): 4.52 µM
% inhibition at top conc. (Ramos; highest concentration 10/50 μM): 99.98%
IC50 (Ramos; read-out: Absolute IC50): 1.78 µM
% inhibition at top conc. (U-937; highest concentration 10/50 μM): 99.97%
IC50 (U-937; read-out: Absolute IC50): 2.19 µM
% inhibition at top conc. (AN3 CA; highest concentration 10/50 μM): 99.96%
IC50 (AN3 CA; read-out: Absolute IC50): 4.43 µM
% inhibition at top conc. (HuCCT1; highest concentration 10/50 μM): 89.54%
IC50 (HuCCT1; read-out: Absolute IC50): 11.3 µM
% inhibition at top conc. (B16-F10; highest concentration 10/50 μM): 99.97%
IC50 (B16-F10; read-out: Absolute IC50): 4.53 µM
% inhibition at top conc. (MIA PaCa-2; highest concentration 10/50 μM): 99.18%
IC50 (MIA PaCa-2; read-out: Absolute IC50): 6.05 µM
% inhibition at top conc. (MDA-MB-453; highest concentration 10/50 μM): 95.15%
IC50 (MDA-MB-453; read-out: Absolute IC50): 12.9 µM
% inhibition at top conc. (U266B1; highest concentration 10/50 μM): 98.85%
IC50 (U266B1; read-out: Absolute IC50): 14.3 µM
% inhibition at top conc. (AMO-1; highest concentration 10/50 μM): 99.99%
IC50 (AMO-1; read-out: Absolute IC50): 0.95 µM
% inhibition at top conc. (HeLa; highest concentration 10/50 μM): 99.45%
IC50 (HeLa; read-out: Absolute IC50): 0.37 µM
% inhibition at top conc. (NCI-H1299; highest concentration 10/50 μM): 98.91%
IC50 (NCI-H1299; read-out: Absolute IC50): 3.69 µM
% inhibition at top conc. (PANC-1; highest concentration 10/50 μM): 94.45%
IC50 (PANC-1; read-out: Absolute IC50): 8.67 µM
% inhibition at top conc. (HT-1376; highest concentration 10/50 μM): 88.74%
IC50 (HT-1376; read-out: Absolute IC50): 4.1 µM
% inhibition at top conc. (Hep G2; highest concentration 10/50 μM): 90.70%
IC50 (Hep G2; read-out: Absolute IC50): 5.86 µM
